Patent US9629861B2, “Compositions and methods for treating bacterial infections using ceftaroline” (Forest Laboratories Holdings Limited, priority 2009, dated 2017)
Read-outs that look alike come from different tables or passages of the source.

Legend:
[1] = Example 4
Protocol: The 600-mg dose of ceftaroline fosamil infused over 60 minutes was split into two infusions in order to maintain the blind. For subjects with moderate renal impairment (30 ml/min<CrCl≦50 ml/min), as estimated by the Cockroft-Gault formula, unblinded pharmacy staff or unblinded study staff could adjust the dose of ceftaroline fosamil to two consecutive 200 mg infusions and readjust dose to two 300 mg infusions when renal function improved (CrCl>50 mL/min). The duration of treatment was between 5 to 7 days.
All subjects who received any amount of study drug were included in the safety analysis. Safety measures included monitoring for adverse events (AE) up to TOC and serious adverse events (SAE) through LFU; recording vital signs, physical examination, electrocardiogram (ECG), and clinical laboratory findings (clinical chemistry, hematology, and urinalysis), at prespecified times throughout the study.

[2] = system: H. parainfluenzae; assay: Example 5 CAP study, outcome by baseline pathogen; format: in vivo, Haemophilus parainfluenzae
From the text: (§1) Per-pathogen clinical cure rate and favorable microbiological outcome rate at TOC in the mMITTE and ME Populations;

[3] = system: CYP3A4/5; assay: CYP induction in human hepatocytes; format: in vitro ADME
[4] = biological target: T1, CYP2C9 (Homo sapiens, UniProt P11712); assay: CYP inhibition in human liver microsomes; format: in vitro ADME
T1 construct: In vitro studies in human liver microsomes; from tissue; host or cells: human liver microsomes
T1 sequence (P11712 whole entry): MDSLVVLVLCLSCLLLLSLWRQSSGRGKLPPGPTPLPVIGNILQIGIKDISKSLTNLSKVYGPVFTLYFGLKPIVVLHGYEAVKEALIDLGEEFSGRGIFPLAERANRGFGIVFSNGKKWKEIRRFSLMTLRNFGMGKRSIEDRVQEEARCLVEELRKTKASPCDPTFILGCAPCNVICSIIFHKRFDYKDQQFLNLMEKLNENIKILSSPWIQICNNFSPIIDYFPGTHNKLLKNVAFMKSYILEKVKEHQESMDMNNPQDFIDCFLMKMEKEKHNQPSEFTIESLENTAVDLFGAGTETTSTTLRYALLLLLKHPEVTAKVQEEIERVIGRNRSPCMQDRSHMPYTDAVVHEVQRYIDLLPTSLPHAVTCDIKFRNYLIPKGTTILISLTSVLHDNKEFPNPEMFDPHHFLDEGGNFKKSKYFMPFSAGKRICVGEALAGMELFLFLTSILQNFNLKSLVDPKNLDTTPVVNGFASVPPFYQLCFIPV

[5] = system: H. influenzae; assay: Example 5 CAP study, outcome by baseline pathogen; format: in vivo
From the text: as §1

[6] = biological target: T2, CYP2A6 (Homo sapiens, UniProt P11509); assay: CYP inhibition in human liver microsomes; format: in vitro ADME
T2 construct: In vitro studies in human liver microsomes; from tissue; host or cells: human liver microsomes
T2 sequence (P11509 whole entry): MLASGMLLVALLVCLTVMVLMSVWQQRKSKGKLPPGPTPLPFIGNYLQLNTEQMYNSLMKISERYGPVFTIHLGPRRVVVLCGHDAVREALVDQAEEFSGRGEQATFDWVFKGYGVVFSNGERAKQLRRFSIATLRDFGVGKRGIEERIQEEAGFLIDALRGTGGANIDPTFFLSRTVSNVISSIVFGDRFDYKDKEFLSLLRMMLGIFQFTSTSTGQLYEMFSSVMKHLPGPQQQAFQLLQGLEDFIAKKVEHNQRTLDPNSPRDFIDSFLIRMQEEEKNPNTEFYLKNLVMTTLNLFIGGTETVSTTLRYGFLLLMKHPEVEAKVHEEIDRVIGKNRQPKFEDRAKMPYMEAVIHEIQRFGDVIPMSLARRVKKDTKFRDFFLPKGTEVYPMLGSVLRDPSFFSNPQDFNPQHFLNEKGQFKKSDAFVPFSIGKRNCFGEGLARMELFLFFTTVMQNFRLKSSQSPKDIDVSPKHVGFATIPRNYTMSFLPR

[7] = Pharmacokinetics in healthy elderly subjects; format: in vivo, human; conditions: healthy elderly (≧65 years); 600 mg IV dose
[8] = biological target: T3, CYP2C8 (Homo sapiens, UniProt P10632); assay: CYP inhibition in human liver microsomes; format: in vitro ADME
T3 construct: In vitro studies in human liver microsomes; from tissue; host or cells: human liver microsomes
T3 sequence (P10632 whole entry): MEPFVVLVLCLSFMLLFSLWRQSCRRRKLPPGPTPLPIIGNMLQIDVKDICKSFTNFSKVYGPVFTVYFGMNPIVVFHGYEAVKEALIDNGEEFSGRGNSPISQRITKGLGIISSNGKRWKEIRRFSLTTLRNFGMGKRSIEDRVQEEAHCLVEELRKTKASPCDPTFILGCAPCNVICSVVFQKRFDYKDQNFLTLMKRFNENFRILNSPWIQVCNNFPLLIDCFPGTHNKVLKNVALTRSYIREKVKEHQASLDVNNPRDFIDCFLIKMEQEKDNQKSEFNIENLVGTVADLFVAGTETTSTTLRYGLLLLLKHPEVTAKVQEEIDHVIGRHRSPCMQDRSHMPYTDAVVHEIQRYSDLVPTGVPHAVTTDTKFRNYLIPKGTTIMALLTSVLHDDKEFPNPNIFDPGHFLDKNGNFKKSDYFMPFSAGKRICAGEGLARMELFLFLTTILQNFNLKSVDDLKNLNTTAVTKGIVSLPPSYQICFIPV

[9] = biological target: T4, CYP2B6 (Homo sapiens, UniProt P20813); assay: CYP inhibition in human liver microsomes; format: in vitro ADME
T4 construct: In vitro studies in human liver microsomes; from tissue; host or cells: human liver microsomes
T4 sequence (P20813 whole entry): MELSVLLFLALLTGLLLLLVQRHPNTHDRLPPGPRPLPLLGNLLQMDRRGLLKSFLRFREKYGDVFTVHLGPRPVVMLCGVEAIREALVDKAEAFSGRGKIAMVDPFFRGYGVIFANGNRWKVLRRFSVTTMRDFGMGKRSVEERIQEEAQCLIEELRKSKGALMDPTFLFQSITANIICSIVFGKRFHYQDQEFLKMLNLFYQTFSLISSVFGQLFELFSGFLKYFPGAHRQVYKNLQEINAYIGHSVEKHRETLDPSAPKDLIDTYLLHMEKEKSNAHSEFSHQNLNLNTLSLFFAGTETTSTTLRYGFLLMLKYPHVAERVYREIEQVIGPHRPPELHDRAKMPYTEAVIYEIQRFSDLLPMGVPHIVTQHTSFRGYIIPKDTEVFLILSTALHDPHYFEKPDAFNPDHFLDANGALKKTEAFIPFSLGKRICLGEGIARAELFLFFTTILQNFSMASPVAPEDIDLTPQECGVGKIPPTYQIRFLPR

[10] = Pharmacokinetics of ceftaroline after IV infusion of ceftaroline fosamil in adults with normal renal function; set-up: species or system human; conditions: in vivo
From the text: The standard deviation is shown in brackets.

[11] = system: Community-Acquired Bacterial Pneumonia (CABP); assay: Phase 3 CABP Study 2 (Example 4, no adjunctive macrolide); format: in vivo, human; conditions: for Clinical Cure Rate at TOC / Treatment Difference in clinical cure rate at TOC: CABP Study 2; for Difference, clinical cure rate at EOT / Difference, favorable microbiological outcome at TOC: ceftaroline minus ceftriaxone, Example 4; for Treatment Difference in clinical cure rate at TOC: versus ceftriaxone
Protocol: In both treatment groups of CABP Study 1, two doses of oral clarithromycin (500 mg q12h), were administered as adjunctive therapy starting on Study Day 1. No adjunctive macrolide therapy was used in CABP Study 2. Patients with new or progressive pulmonary infiltrate(s) on chest radiography and clinical signs and symptoms consistent with CABP with the need for hospitalization and IV therapy were enrolled in the studies. Treatment duration was 5 to 7 days. A switch to oral therapy was not allowed. The Modified Intent-to-Treat Efficacy (MITTE) population included all patients who received any amount of study drug according to their randomized treatment group and were in PORT (Pneumonia Outcomes Research Team) Risk Class III or IV.
The primary efficacy endpoint was the clinical response at the Test of Cure (TOC) visit in the co-primary CE and MITTE populations (Table 4).
The secondary objectives of the study were to evaluate the following: clinical response at end-of-therapy (EOT); the microbiological favorable outcome rate at TOC; the overall (clinical and radiographic) success rate at TOC; the clinical and microbiological response by pathogen at TOC; clinical relapse at late follow-up (LFU); microbiological reinfection/recurrence at LFU; and safety.
The following criteria were used for evaluation: The primary efficacy outcome measures were the per-subject clinical cure rate at test-of-cure (TOC) in the CE and MITTE Populations. Subjects were considered clinically cured at TOC if they had total resolution of all signs and symptoms of the baseline infection, or improvement of the infection such that no further antimicrobial therapy was necessary.
Non-inferiority was concluded if the lower limit of the 95% CI was higher than −10%.

[12] = system: CYP2B6; assay: CYP induction in human hepatocytes; format: in vitro ADME
[13] = system: S. aureus; assay: Example 4 CAP study, outcome by baseline pathogen; format: in vivo, Staphylococcus aureus
From the text: as §1

[14] = system: CYP2C9; assay: CYP induction in human hepatocytes; format: in vitro ADME
[15] = system: MDRSP; assay: Example 5 CAP study, outcome by baseline pathogen; format: in vivo, Streptococcus pneumoniae
From the text: as §1

[16] = system: S. pneumoniae; assay: Example 5 CAP study, outcome by baseline pathogen; format: in vivo, Streptococcus pneumoniae
From the text: as §1

[17] = human, in vivo
[18] = human, in vivo; remark: listed apart in the source
[19] = system: complicated skin and skin structure infections (cSSSI); assay: Two Phase 3 studies in cSSSI, integrated; format: in vivo, human; conditions: co-primary CE and MITT populations
Protocol: A total of 1396 adults with clinically documented complicated skin and skin structure infections (cSSSI) were enrolled in two randomized, multi-center, multinational, double-blind, studies comparing 600 mg ceftaroline fosamil administered intravenously over 1 hour every 12 hours to vancomycin plus aztreonam [1 g vancomycin administered intravenously over 1 hour followed by 1 g aztreonam administered intravenously over 1 hour every 12 hours]. Patients with cSSSI (deep/extensive cellulitis, a major abscess, a wound infection [surgical or traumatic], infected insect bites, burns or ulcers, lower extremity infection in patients with diabetes mellitus or peripheral vascular disease), were enrolled in the studies. Treatment duration was 5 to 14 days. A switch to oral therapy was not allowed. The Modified Intent-to-Treat (MITT) population included all patients who received any amount of study drug according to their randomized treatment group.
The primary efficacy endpoint was clinical response at the Test of Cure (TOC) visit in the co-primary CE and MITT populations (Table 2). […] In a subgroup analysis (CE population), the comparative clinical cure rates between the ceftaroline group and the vancomycin plus aztreonam group were not affected by age, gender, race, ethnicity, or weight.

CCO/N=C(\C(=O)N[C@@H]1C(=O)N2C(C(=O)[O-])=C(Sc3nc(-c4cc[n+](C)cc4)cs3)CS[C@H]12)c1nsc(N)n1 [Ceftaroline]
TEAEs leading to premature discontinuation from study drug administration [1]: 0.6%
any study-drug-related TEAEs, subjects [1]: 12.4%
study-drug-related TEAE: headache [1]: 0.6%
Early withdrawal from study, reason Adverse Event ([1]; MITTE population): 8 (2.8) %
Any AE (TEAE), subjects ([1]; Safety population): 169 (53.7) %
COPD, subjects ([1]; Safety population): 8 (2.5) %
Diarrhea, subjects ([1]; Safety population): 12 (3.8) %
Headache, subjects ([1]; Safety population): 11 (3.5) %
Hypertension, subjects ([1]; Safety population): 8 (2.5) %
Hypokalemia, subjects ([1]; Safety population): 10 (3.2) %
Insomnia, subjects ([1]; Safety population): 10 (3.2) %
Nausea, subjects ([1]; Safety population): 6 ( 1.9) %
Phlebitis, subjects ([1]; Safety population): 10 (3.2) %
Pleural effusion, subjects ([1]; Safety population): 4 (1.3) %
Pneumonia, subjects ([1]; Safety population): 8 (2.5) %
Any AE (TEAE), subjects ([1]; Safety population, listed as ceftaroline): 53.7%
Favorable Microbiological Outcome at TOC by Baseline Pathogen ([2]; ME): 7/7 (100.0) %
Clinical Cure Rate at the TOC Visit by Baseline Pathogen ([2]; ME population): 7/7 (100.0) %
induction of CYP3A4/5 [3]: not inducers
inhibition of CYP2C9 [4]: neither ceftaroline fosamil nor ceftaroline inhibits
Favorable Microbiological Outcome at TOC by Baseline Pathogen ([5]; ME): 2/3 (66.7) %
Clinical Cure Rate at the TOC Visit by Baseline Pathogen ([5]; ME population): 2/3 (66.7) %
inhibition of CYP2A6 [6]: neither ceftaroline fosamil nor ceftaroline inhibits
Cmax, elderly versus younger subjects [7]: not significantly different
inhibition of CYP2C8 [8]: neither ceftaroline fosamil nor ceftaroline inhibits
inhibition of CYP2B6 [9]: neither ceftaroline fosamil nor ceftaroline inhibits
CL/Fm ([10]; human): 9.58 (1.85) L/h
mean plasma terminal elimination half-life ([10]; human): approximately 2.5 hours
Cmax and AUC versus dose [10]: increased approximately in proportion to increases in dose
Clinical Cure Rate at TOC ([11]; CE population): 193 (82.1) %
Clinical Cure Rate at TOC ([11]; MITTE population): 235 (81.3) %
Difference, clinical cure rate at EOT ([11]; CE): 6.0%
Difference, favorable microbiological outcome at TOC ([11]; ME): 1.8%
Difference, clinical cure rate at EOT ([11]; MITTE): 7.4%
Difference, favorable microbiological outcome at TOC ([11]; mMITTE): 0.4%
Treatment Difference in clinical cure rate at TOC ([11]; CE): 4.9%
Treatment Difference in clinical cure rate at TOC ([11]; MITTE): 5.9%
induction of CYP2B6 [12]: not inducers
Favorable Microbiological Outcome at TOC by Baseline Pathogen ([13]; ME): 11/15 (73.3) %
Clinical Cure Rate at the TOC Visit by Baseline Pathogen ([13]; ME population): 10/15 (66.7) %
induction of CYP2C9 [14]: not inducers
Favorable Microbiological Outcome at TOC by Baseline Pathogen ([15]; ME): 2/2 (100.0) %
Clinical Cure Rate at the TOC Visit by Baseline Pathogen ([15]; ME population): 2/2 (100.0) %
Favorable Microbiological Outcome at TOC by Baseline Pathogen ([16]; ME): 21/24 (87.5) %
Clinical Cure Rate at the TOC Visit by Baseline Pathogen ([16]; ME population): 21/24 (87.5) %
exposure (Cmax and AUC) with concomitant inhibitors, inducers and substrates of cytochrome P450 [17]: did not identify any clinically relevant increases
AUC higher in female than in male subjects [18]: 6-15%
Cmax higher in female than in male subjects [18]: 17-22%
clinical response at TOC compared with vancomycin plus aztreonam [19]: non-inferior
